The values that follow come from US12637435B2, “Nitrogen-containing heterocyclic compound or salt thereof, use thereof, and intermediate thereof” (FUJIFILM Corporation, priority 2020, dated 2026).

One experiment deals with T1, recombinant human DHODH (Homo sapiens, UniProt Q02127).
T1 construct: DHODH, 31-395aa, Human, His tag, E. coli, ATGP1615; His tag; purchased ATGen Co. Ltd. ATGP1615; host or cells: E. coli
Briefly: DHODH enzyme reaction inhibition test (DCIP-coupled assay). The class given is biochemical. The settings on record: recombinant human DHODH 0.175 μg/mL, DCIP absorbance 600 nm, 50 minutes, pH 8.0; read-out: Enzyme reaction inhibitory effect (IC50). In a few lines: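 Recombinant human DHODH (aa 31-395, His-tagged, E. coli; 0.175 μg/mL) in pH 8.0 Hepes/NaCl/glycerol/Triton buffer with 0.2 mmol/L ubiquinone-10, 0.1 mmol/L DHO, 0.12 mmol/L DCIP, 0.5% DMSO. Substrate-started reaction followed as DCIP absorbance decrease at 600 nm over 50 minutes; IC50 from inhibition versus DMSO control.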

The subject of the next experiment is HL60 subcutaneous tumor. Briefly: In vivo drug efficacy test in cancer-bearing mouse model with subcutaneous transplantation of HL60. To be noted: HL60 subcutaneous xenograft, female NOD/scid mice, oral 2.5 to 10 mg/kg once a day for 10 to 12 days. An excerpt:
(Drug Efficacy Test in Cancer-Bearing Mouse Model with Subcutaneous Transplantation of HL60)
The human acute myeloid leukemia cell line HL60 (available from JCRB) was suspended in a mixture of RPMI-1640 culture medium and Matrigel (available from Corning Inc.), and then subcutaneously transplanted into 6-week-old female NOD/scid mice (available from CLEA Japan, Inc.). The test compound was dispersed in a solvent (0.5% aqueous methylcellulose solution), and from the time when tumor engraftment was visually confirmed, the test compound was orally administered to mice at a dose of 2.5 to 10 mg/kg once a day for 10 to 12 days. A solvent administration group to which a 0.5% aqueous methylcellulose solution was administered was provided as a negative control. The tumor diameter was measured over time and the tumor volume was calculated. The tumor volume was calculated by measuring the major axis and the minor axis of the tumor and using the following expression. Tumor volume (mm^3)=[major axis (mm)×minor axis (mm)×minor axis (mm)]/2
T/C (%) was calculated from the average tumor volume of each group by the following expression, and the drug efficacy was evaluated. T/C (%)=(average tumor volume of drug-administered group)/(average tumor volume of solvent-administered group)×100%

The test system of experiment [1] is human myeloid leukemia cell line HL60. As to the kind of experiment: Cell growth test, HL60 (CellTiter-Glo). Format: cell-based. The settings on record: HL-60, 72 h, HL60 cells, 3 days, CellTiter-Glo luminescence, read-out: Cell growth inhibitory effect (GI50). The essentials:
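HL60 cells at 1×10^3 per well in RPMI 1640/10% FBS, compound added after overnight culture and incubated 3 days. Viable cells measured by CellTiter-Glo luminescence relative to DMSO wells; GI50 calculated from growth inhibition rates.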

For orientation: IC50 means the concentration needed to halve the response being measured. In general, GI50 refers to the concentration that inhibits growth by half.

T1 sequence (Q02127 31-395): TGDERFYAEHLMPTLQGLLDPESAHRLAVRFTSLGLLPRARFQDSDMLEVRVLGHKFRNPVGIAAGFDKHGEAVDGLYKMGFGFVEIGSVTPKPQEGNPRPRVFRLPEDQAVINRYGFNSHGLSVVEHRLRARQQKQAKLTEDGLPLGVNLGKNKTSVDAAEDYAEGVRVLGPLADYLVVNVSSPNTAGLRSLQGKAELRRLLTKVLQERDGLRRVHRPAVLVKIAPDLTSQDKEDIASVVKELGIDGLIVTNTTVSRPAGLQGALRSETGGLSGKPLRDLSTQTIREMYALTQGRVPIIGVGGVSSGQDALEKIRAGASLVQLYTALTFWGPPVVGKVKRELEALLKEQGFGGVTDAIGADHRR

Turning to `CS(=O)(=O)NC(=O)c1nc(C2CC2)cnc1Nc1cccc(C2=CCOCC2)c1OCC(F)(F)F` [Example 1-2, 6-cyclopropyl-3-((3-(3,6-dihydro-2H-pyran-4-yl)-2-(2,2,2-trifluoroethoxy)phenyl)amino)-N-(methylsulfonyl)pyrazine-2-carboxamide], the IC50 on recombinant human DHODH is < 10 nM. Moreover, the “tumor growth inhibition rate (T/C from tumor volume)” value with HL60 subcutaneous tumor is “excellent tumor growth inhibition rate”. Besides, the GI50 in experiment [1] was < 100 nM.
In the same order, the values of `CS(=O)(=O)NC(=O)c1nc(C2CC2)cnc1Nc1cccc(C2CCOCC2)c1OCC(F)(F)F` [Example 3-30] are < 10 nM, “excellent tumor growth inhibition rate” and < 100 nM.
The corresponding values for `N#Cc1ccc(-c2cccc(Nc3ncc(C4CC4)nc3C(=O)NS(N)(=O)=O)c2OCC(F)(F)F)cc1` [Example 3-41] are < 10 nM, “excellent tumor growth inhibition rate” and < 100 nM.
Regarding `O=C(O)c1nc(C2CC2)cnc1Nc1cccc(-c2ccc(F)cc2)c1OCC(F)(F)F` [Example 2-13], the IC50 at recombinant human DHODH is < 10 nM. Moreover, in experiment [1], the GI50 was < 100 nM.
Turning to `Cc1ccc(-c2cccc(Nc3ncc(C4CC4)nc3C(=O)NS(C)(=O)=O)c2OCC(F)(F)F)c(C)n1` [Example 3-15], on recombinant human DHODH, the IC50 lay in the range of 10 to 100 nM. Moreover, the GI50 in experiment [1] was 100 to 1000 nM.
As for `N#CNC(=O)c1cc(C2CC2)ccc1Nc1cncc(C2=CCOCC2)c1OCC(F)(F)F` [Example 3-2], on recombinant human DHODH, the IC50 was < 10 nM. Moreover, in experiment [1], the GI50 is ≥ 1000 nM.
